# Test results as given in paper PMC10432564, “Pharmacological perturbation of the phase-separating protein SMNDC1” (Nature Communications, 2023).
# Legend:
# SMNDC1 Tudor domain = molecular target: T1, SMNDC1 Tudor domain (Homo sapiens, UniProt O75940); assay: AlphaScreen, SMNDC1 Tudor domain / sDMA-peptide interaction
# T1 sequence (O75940 65-128): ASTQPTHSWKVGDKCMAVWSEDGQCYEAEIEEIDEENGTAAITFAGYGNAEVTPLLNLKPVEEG
# Description: To pharmacologically perturb SMNDC1 function, we set out to identify small molecule inhibitors of SMNDC1’s Tudor domain based on perturbing its interaction with a dimethylarginine peptide. To establish an AlphaScreen[50], we coupled donor beads to purified SMNDC1’s (or SMN’s) Tudor domain via a His-Tag and acceptor beads to a biotinylated peptide corresponding to the C-terminal region of the Small nuclear ribonucleoprotein Sm D3 containing four sDMAs (Fig. 4a). […] To identify ideal concentrations for screening, we performed a cross-titration of Tudor domains and binding peptides (Supplementary Fig. 3b).
# The AlphaScreen was conducted in 20 mM sodium phosphate pH 6.5, 50 mM NaCl, Tween 0.01%, BSA 0.1%. Protein concentration was optimized for each batch of purified protein. Optimal concentration was chosen at the lowest concentration with ~80% of maximum signal. […] In the first step, 10 µl of the protein solution containing either SMNDC1’s or SMN’s Tudor domain coupled to a 6xHis-Tag were distributed to 384-well plates pre-spotted with compounds and controls, shaken and incubated for 30 min at RT. Afterwards, 10 µl of peptide solution was added to each well and incubated for 1 h at RT. Finally, 5 µl of a solution containing both Streptavidin Donor and nickel chelate (Ni-NTA) Acceptor beads was added and again incubated for 1 h at RT.
# Category Parameter Description
# Assay Type of assay In vitro AlphaScreen / luminescence proximity
# Target Tudor domain of SMNDC1
# Primary measurement Decrease in luminescence signal reflecting
# disruption of heterodimeric complex between
# SMNDC1-Tudor domain and a peptide
# corresponding to the C-terminus of Small nuclear
# ribonucleoprotein Sm D3 containing 4 sDMAs
# Key reagents AlphaScreen no-wash assay kit containing
# Streptavidin Donor beads and nickel chelate (Ni-
# NTA) AlphaScreen Acceptor beads (PerkinElmer
# Assay protocol Described in Methods section
# Screen Format PerkinElmer OptiPlate-384 well plate
# Concentration(s) tested Typically 10 μM (0.1% DMSO)
# Plate controls 32 positive control wells (Mitoxantrone, quencher),
# 32 negative control wells (DMSO)
# Reagent/ compound dispensing system Echo 520 Liquid Handler Multidrop™ Combi
# Normalization Raw signal was normalized plate-specifically by
# correcting row and column-specific mean signals to
# the mean signal of the entire plate, each after
# removing the highest and lowest 25% of values. Raw
# signal was then converted to percent of control
# signal, but linear regression to plate-specific mean
# signal of DMSO wells (set to 100 percent of control)
# and positive control wells (set to 0% of control), after
# outlier removal using a Grubbs test.
# unspecific quenchers), Secondary screen (with
# APEX2-SMNDC1^FL = molecular target: T2, APEX2-SMNDC1^FL (Homo sapiens, UniProt O75940); assay: APEX2-SMNDC1^FL proximity labeling, biotin enrichment and mass spectrometry; type: cell-based, mouse; conditions: compound-treated over DMSO; adjusted p-value<0.05, |log2FC|≥2
# T2 construct: In addition to full-length SMNDC1 (APEX2-SMNDC1^FL); expressed in transfected cells
# T2 sequence (O75940 1-238): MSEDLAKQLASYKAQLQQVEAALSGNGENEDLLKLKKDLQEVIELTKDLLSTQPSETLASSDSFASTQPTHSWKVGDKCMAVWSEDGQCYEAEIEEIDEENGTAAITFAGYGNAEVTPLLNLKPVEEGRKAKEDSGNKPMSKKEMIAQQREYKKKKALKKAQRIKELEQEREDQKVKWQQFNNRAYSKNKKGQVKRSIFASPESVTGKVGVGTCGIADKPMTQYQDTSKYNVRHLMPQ
# Description: Proximity labeling with APEX2 was done following the described protocol for imaging and proteomic analysis. Cell lines with a stable expression of APEX2-fusion proteins were generated using lentiviral transduction of plasmids generated with Gateway cloning of the respective fusion protein into pLEX305. pLEX_305 was a gift from David Root (Addgene plasmid # 41390; http://n2t.net/addgene:41390; RRID:Addgene_41390). The APEX2 sequence was amplified from APEX2-csGBP which was a gift from Rob Parton (Addgene plasmid # 108874; http://n2t.net/addgene:108874; RRID:Addgene_108874). Briefly, cells were incubated with 0.5 mM biotin-phenol for 30 min, after which 1 mM H2O2 was added for exactly 1 min. Afterwards the labeling reaction was quenched by 3 quick washes with Quenching solution (10 mM sodium ascorbate, 10 mM sodium azide, 5 mM Trolox in PBS). […]
# After proximity labeling, cells (~10 Mio. cells, 15 cm dish) were harvested, washed 2x in PBS, snap frozen and stored at −80 °C. […] After quantification of protein amounts by Pierce™ 660 nm Protein Assay, samples were normalized to 500 µg total protein input in a final volume of 300 µl lysis buffer. […]
# Following data acquisition, acquired raw data files were processed using the Proteome Discoverer v.2.4.1.15 platform, choosing a TMT16plex quantification method. […]
# [1] = test system: SRRM2-RFP intron 9-10, αTC1; assay: Live imaging of SRRM2-RFP (nuclear speckles); type: cell-based, mouse
# Description: Cell lines with fluorescent tags in the endogenous intron loci of different genes were generated as described in Serebrenik et al., and Reicher et al.[39],[74]. Cells were transiently transfected using Avalanche-Everyday Transfection Reagent with three plasmids in parallel: (1) the donor plasmid containing the artificial intron with splice acceptor and splice donor site, the fluorescent tag GFP or RFP, and a possible correction for the frame of the targeted intron, (2) a pX330 backbone containing Cas9 and the gRNA against the donor plasmid, and (3) a plasmid expressing the gRNA against the target intron (see table below). After 3–5 days, GFP- and/or RFP-positive cells were sorted on a SONY SH800 Cell Sorter to get fluorescent single cell clones. Clones were validated for the correct integration of the intron-tag via comparison of live cell images to publicly available or in-house IF images, genomic DNA PCR amplification of the respective loci, and western blots with antibodies against the target protein and/or the fluorescent tag.
# Cells were imaged on a PerkinElmer Opera Phenix automated microscope with 500 ms exposure time in either GFP or RFP channel, or on a Zeiss LSM 980 microscope. For condition-independent identification nuclear markers such as Hoechst or DRAQ5^TM were used.
# Images were analyzed using the high-content image acquisition and analysis software Harmony® 4.9 developed by PerkinElmer. First, nuclei were identified in the channel of the nuclear marker (DAPI/ Hoechst/ DRAQ5^TM) (with Method C, Common Threshold 0.75, Area > 10 µm^2). After the identification of nuclei, their corresponding cytoplasm was also identified using the respective nucleic acid marker (with Method A, Individual Threshold 0.15). Even though the highest staining of these nuclear markers is obviously detected in the nucleus they still produce a significant staining of the cytoplasm above background. After defining the respective cell areas, mean intensity in the different channels was measured. […]
# [2] = Solubility in aqueous, buffered solution for NMR; type: physicochemical
# Description: All NMR acquisition was performed in 3 mm tubes at 25 °C. […] All titration measurements were performed in 20 mM sodium phosphate buffer pH 6.5, 50 mM NaCl, 4 mM dithiothreitol and 10% (v/v) D2O as deuterium lock. Aqueous, buffered inhibitor stock solutions of maximal 20 mM concentration were prepared and carefully adjusted to pH 6.5. Inhibitor concentration was measured by addition of 100 µM DSS, peak integration and calculating with C=I⋅NDSS⋅CDSS/IDSS⋅N where C, I, N and CDSS, IDSS, NDSS is the concentration, peak intensity, and number of protons of inhibitor and DSS, respectively.
smiles,measurement,setting,value
CN(C)S(=O)(=O)c1ccc(C(=O)Nc2nc(-c3ccccn3)cs2)cc1 [compound 1],IC50,SMNDC1 Tudor domain,500 nM
same,proteins significantly depleted,APEX2-SMNDC1^FL,126 proteins
same,proteins significantly enriched,APEX2-SMNDC1^FL,6 proteins
same,SRRM2 and general organization of nuclear speckles,[1],affected
same,SRRM2 spots,[1],appeared to dissolve into the nucleoplasm
same,overall SRRM2 intensity,[1],slightly reduced
same,solubility,[2],insufficient solubility
